Source: US8952162B2, “Triazolopyridines as phosphodiesterase inhibitors for treatment of dermal diseases” (Leo Pharma A/S, priority 2008, dated 2015)

Target: Human recombinant PDE4 (Genbank accession no NM—006203) (Homo sapiens, UniProt Q08499)
Assay: PDE4 assay (SPA, cAMP cleavage)
Assay type: biochemical
Settings: Example 53; PDE4 assay as in example 52; read-out: PDE4 IC50 range
Experimental: At the end of the incubation, the cleavage of the substrate was evaluated by the binding of the AMP product to SPA beads, which generate chemoluminescence when bound to the radioactive tracer. The AMP product inhibited the binding of the radioactive tracer to the beads, and the luminescent signal was competed.

Human recombinant PDE4 (Genbank accession no NM—006203), sequence (Q08499 1-673 isoform Q08499-2): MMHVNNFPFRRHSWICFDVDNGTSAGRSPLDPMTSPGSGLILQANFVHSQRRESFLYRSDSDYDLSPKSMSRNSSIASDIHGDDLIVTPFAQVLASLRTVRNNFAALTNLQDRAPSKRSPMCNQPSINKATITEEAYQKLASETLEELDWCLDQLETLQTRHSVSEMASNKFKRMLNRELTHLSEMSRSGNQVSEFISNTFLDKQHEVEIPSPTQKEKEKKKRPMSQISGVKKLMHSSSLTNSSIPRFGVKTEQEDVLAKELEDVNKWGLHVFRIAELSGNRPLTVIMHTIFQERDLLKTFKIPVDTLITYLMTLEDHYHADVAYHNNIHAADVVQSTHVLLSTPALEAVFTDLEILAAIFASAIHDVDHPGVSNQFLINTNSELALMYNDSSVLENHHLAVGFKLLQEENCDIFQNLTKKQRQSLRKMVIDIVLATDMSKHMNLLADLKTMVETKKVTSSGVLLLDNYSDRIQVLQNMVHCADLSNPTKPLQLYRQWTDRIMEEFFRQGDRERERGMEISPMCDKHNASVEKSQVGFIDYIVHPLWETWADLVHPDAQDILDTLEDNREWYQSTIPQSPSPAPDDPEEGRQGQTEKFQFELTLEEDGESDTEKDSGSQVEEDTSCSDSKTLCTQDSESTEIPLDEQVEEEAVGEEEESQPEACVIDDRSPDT

Row | Compound | IC50 [nM]
1 | COc1cc(-c2ccc(OC)c3nc(C4(COC(=O)NC(C)C)CC4)nn23)ccc1C#N [Compound 235, Isopropyl-carbamic acid 1-[5-(4-cyano-3-methoxy-phenyl)-8-methoxy-[1,2,4]triazolo[1,5-a]pyridin-2-yl]-cyclopropylmethyl ester] | < 500
2 | CCCNC(=O)OCC1(c2nc3c(OC)ccc(-c4cncc(C#N)c4)n3n2)CC1 [Compound 236, Propyl-carbamic acid 1-[5-(5-cyano-pyridin-3-yl)-8-methoxy-[1,2,4]triazolo[1,5-a]pyridin-2-yl]-cyclopropylmethyl ester] | < 500
3 | CCCNC(=O)OCC1(c2nc3c(OC)ccc(-c4ccc(C#N)c(OC)c4)n3n2)CC1 [Compound 237, Propyl-carbamic acid 1-[5-(4-cyano-3-methoxy-phenyl)-8-methoxy-[1,2,4]triazolo[1,5-a]pyridin-2-yl]-cyclopropylmethyl ester] | < 500
4 | COc1ccc(-c2ccc3c(c2)CCC3=O)n2nc(C3(COC(=O)N4CCCC4)CC3)nc12 [Compound 238, Pyrrolidine-1-carboxylic acid 1-[8-methoxy-5-(1-oxo-indan-5-yl)-[1,2,4]triazolo[1,5-a]pyridin-2-yl]-cyclopropylmethyl ester] | < 500
5 | COc1ccc(-c2ccc3c(c2)CCC3=O)n2nc(C3(COC(=O)NC(C)C)CC3)nc12 [Compound 239, Isopropyl-carbamic acid 1-[8-methoxy-5-(1-oxo-indan-5-yl)-[1,2,4]triazolo[1,5-a]pyridin-2-yl]-cyclopropylmethyl ester] | < 500
6 | COc1ccc(-c2cccc3c2CCC3=O)n2nc(C3(COC(=O)NC4CCCCC4)CC3)nc12 [Compound 240, Cyclohexyl-carbamic acid 1-[8-methoxy-5-(1-oxo-indan-4-yl)-[1,2,4]triazolo[1,5-a]pyridin-2-yl]-cyclopropylmethyl ester] | < 500
7 | COc1cc(-c2ccc(OC)c3nc(C4(COC(=O)NC5CCCCC5)CC4)nn23)ccc1C#N [Compound 241, Cyclohexyl-carbamic acid 1-[5-(4-cyano-3-methoxy-phenyl)-8-methoxy-[1,2,4]triazolo[1,5-a]pyridin-2-yl]-cyclopropylmethyl ester] | < 500
8 | COc1ccc(-c2cncc(C#N)c2)n2nc(C3(COC(=O)N4CCCC4)CC3)nc12 [Compound 242, Pyrrolidine-1-carboxylic acid 1-[5-(5-cyano-pyridin-3-yl)-8-methoxy-[1,2,4]triazolo[1,5-a]pyridin-2-yl]-cyclopropylmethyl ester] | < 500
9 | COc1ccc(-c2ccc3c(c2)COC3=O)n2nc(C3(C(=O)NCCS(C)(=O)=O)CC3)nc12 [Compound 269, 1-[8-Methoxy-5-(1-oxo-1,3-dihydro-isobenzofuran-5-yl)-[1,2,4]triazolo[1,5-a]pyridin-2-yl]-cyclopropanecarboxylic acid (2-methanesulfonyl-ethyl)-amide] | < 500
10 | COc1ccc(-c2ccc3c(c2)COC3=O)n2nc(C3(C(=O)NCC4CCCCC4)CC3)nc12 [Compound 270, 1-[8-Methoxy-5-(1-oxo-1,3-dihydro-isobenzofuran-5-yl)-[1,2,4]triazolo[1,5-a]pyridin-2-yl]-cyclopropanecarboxylic acid cyclohexylmethyl-amide] | < 500

More lines, now with the values ahead:

Row | IC50 [nM] | Compound
11 | < 500 | COc1ccc(-c2cccc(C(C)=O)c2)n2nc(C3(C(=O)N4CCOCC4)CC3)nc12 [Compound 223, 1-(3-{8-Methoxy-2-[1-(morpholine-4-carbonyl)-cyclopropyl]-[1,2,4]-triazolo[1,5-a]pyridin-5-yl}-phenyl)-ethanone]
12 | < 500 | COc1ccc(-c2cccc(C(C)=O)c2)n2nc(C3(C(=O)NCc4ccccc4)CC3)nc12 [Compound 224, 1-[5-(3-Acetyl-phenyl)-8-methoxy-[1,2,4]triazolo[1,5-a]pyridin-2-yl]-cyclopropanecarboxylic acid benzylamide]
13 | < 500 | COc1ccc(-c2cccc(C(C)=O)c2)n2nc(C3(C(=O)NCCS(N)(=O)=O)CC3)nc12 [Compound 225, 1-[5-(3-Acetyl-phenyl)-8-methoxy-[1,2,4]triazolo[1,5-a]pyridin-2-yl]-cyclopropanecarboxylic acid (2-sulfamoyl-ethyl)-amide]
14 | < 500 | COc1ccc(-c2cccc(C(C)=O)c2)n2nc(C3(C(=O)NCCS(C)(=O)=O)CC3)nc12 [Compound 226, 1-[5-(3-Acetyl-phenyl)-8-methoxy-[1,2,4]triazolo[1,5-a]pyridin-2-yl]-cyclopropanecarboxylic acid (2-methanesulfonyl-ethyl)-amide]
15 | < 500 | COc1ccc(-c2cccc(C#N)c2)n2nc(C3(C(=O)NCCO)CC3)nc12 [Compound 228, 1-[5-(3-Cyano-phenyl)-8-methoxy-[1,2,4]triazolo[1,5-a]pyridin-2-yl]-cyclopropanecarboxylic acid (2-hydroxy-ethyl)-amide]
16 | < 500 | CCCNC(=O)OCC1(c2nc3c(OC)ccc(-c4ccc5c(c4)CCC5=O)n3n2)CC1 [Compound 230, Propyl-carbamic acid 1-[8-methoxy-5-(1-oxo-indan-5-yl)-[1,2,4]triazolo[1,5-a]pyridin-2-yl]-cyclopropylmethyl ester]
17 | < 500 | COc1cc(-c2ccc(OC)c3nc(C4(COC(=O)N(C)C)CC4)nn23)ccc1C#N [Compound 231, Dimethyl-carbamic acid 1-[5-(4-cyano-3-methoxy-phenyl)-8-methoxy-[1,2,4]triazolo[1,5-a]pyridin-2-yl]-cyclopropylmethyl ester]
18 | < 500 | COc1ccc(-c2cncc(C#N)c2)n2nc(C3(COC(=O)NC(C)C)CC3)nc12 [Compound 232, Isopropyl-carbamic acid 1-[5-(5-cyano-pyridin-3-yl)-8-methoxy-[1,2,4]triazolo[1,5-a]pyridin-2-yl]-cyclopropylmethyl ester]
19 | < 500 | CCCNC(=O)OCC1(c2nc3c(OC)ccc(-c4cccc5c4CCC5=O)n3n2)CC1 [Compound 233, Propyl-carbamic acid 1-[8-methoxy-5-(1-oxo-indan-4-yl)-[1,2,4]triazolo[1,5-a]pyridin-2-yl]-cyclopropylmethyl ester]
20 | < 500 | COc1cc(-c2ccc(OC)c3nc(C4(COC(=O)N5CCCC5)CC4)nn23)ccc1C#N [Compound 234, Pyrrolidine-1-carboxylic acid 1-[5-(4-cyano-3-methoxy-phenyl)-8-methoxy-[1,2,4]-triazolo[1,5-a]pyridin-2-yl]-cyclopropylmethyl ester]
